Assay results taken from the METLIN SMRT retention time set (Domingo-Almenara et al. 2019).

Test: gradient 5% acetonitrile 3 min, to 50% in 2 min, to 85% in 15 min, held 3 min, 100 µL/min
Conditions: column: Zorbax Extend-C18 2.1 x 50 mm; eluents: water / acetonitrile, 0.1% formic acid
In short: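 Over 3 months, pure standards in mixtures of ~100 molecules were run by HPLC coupled to a quadrupole time-of-flight mass spectrometer in positive and negative ionization mode. The column was a Zorbax Extend-C18 (2.1 × 50 mm, 1.8 μm) at 100 μL/min, eluted with water and acetonitrile each holding 0.1% formic acid, with 40 μL dead and 900 μL dwell volumes. Retention time was determined from adduct peaks chosen by software and checked manually.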

| Compound | RP-LC retention time [s] |
| --- | --- |
| O=C(Nc1nnc(-c2ccc(Cl)s2)o1)c1ccc(S(=O)(=O)N2CCCC2)cc1 | 814 |
| Cc1ccc(S(=O)(=O)N2CC3CN(C(=O)NCc4ccco4)CC(C2)O3)cc1 | 767 |
| CCc1cc(=O)n(CC(=O)Nc2ccc(OC)c(OC)c2)c(N2CCOCC2)n1 | 646 |
| CCC(=O)Nc1cc(C)n(Cc2ccccc2)n1 | 733 |
| CN1C(=O)c2cccn2CC1CNC(=O)NCc1ccccc1 (centres undefined) | 646 |
| CC(C)Oc1ccc(CNC(=O)c2nnc(-c3ccc(S(=O)(=O)N4CCOCC4)cc3)o2)cc1 | 915 |
| CC(C)Cn1cc(CCNC(=O)c2ccc(C(F)(F)F)cc2)c2cccnc21 | 940 |
| O=C(c1ccc(N2CCCCC2)c(S(=O)(=O)N2CCCCC2)c1)N1CCN(c2ccccn2)CC1 | 813 |
| Cc1oc(-c2[nH]ncc2C(=O)N2CCCC2)cc1S(=O)(=O)NCCCN(C)C | 569 |
| COC(=O)c1ccc2c(=O)n(-c3cc(OC)cc(OC)c3)c(N3CCC(C)CC3)nc2c1 | 1210 |
| COc1ccccc1NS(=O)(=O)c1ccc2c(c1)C(=O)N(C)c1ncccc1O2 | 885 |
| O=c1cc(CN(Cc2ccccc2)Cc2ccccc2)nc2ccc(Cl)cn12 | 745 |
| CC(C)CNC(=O)C1Cn2cccc2C(=O)N1CC(C)C (centres undefined) | 750 |
| CCNC(=O)N1C[C@@H]2CCCN3CCC[C@@H]([C@H]23)[C@H]1CCCC(=O)NCC1CC1 | 569 |
| Cc1ccc(CN2N=C(C(=O)N3CCC(C)CC3)S(=O)(=O)c3ccccc32)cc1 | 1060 |
| O=C(NC1CCN(Cc2ccccc2)CC1)c1c(OCC2CC2)cc(=O)n2c1CCCCC2 | 596 |
| COCCOCC(=O)N1CCC(c2noc(C3CC3)n2)C1 (centres undefined) | 619 |
| Nc1c(C(=O)c2ccccc2)sc2[nH]c(=O)c(C(=O)O)cc12 | 733 |
| CCOC(=O)c1[nH]c(C)c(CCC(=O)N2CCC(C(=O)NCc3ccc(Cl)cc3)CC2)c1C | 828 |
| Cc1cc(C)n(-c2ccnc(NCCc3cccs3)n2)n1 | 836 |
| CC(=O)Nc1c(-c2ccccn2)nsc1C(=O)N1CCC(C)CC1 | 849 |
| O=C(c1cc(-c2ccc(F)cc2)c[nH]1)N1CCc2ccccc21 | 1000 |
| Cc1ccc(CNC(=O)Cn2nc(C)c3sc(-c4ccccc4)nc3c2=O)cc1C | 968 |

| Compound | RP-LC retention time [s] |
| --- | --- |
| CN(C)C/C=C(/c1ccc(Br)cc1)c1cccnc1 | 664 |
| CSc1ccc(-c2nc3nc(C)cc(C)n3c2Nc2ccc3c(c2)OCCO3)cc1 | 724 |
| O=C(Nc1cccc(Cl)c1)N1CCc2nc(-c3ccccc3)ncc2C1 | 997 |
| COc1ccc(C(=O)N2CC(n3cc(COCC4CC4)nn3)C2)cc1F | 620 |
| CC1SC(C)C(=O)N(CC(=O)Nc2ccc3c(c2)OCCO3)C1=O (centres undefined) | 735 |
| Cc1ccc(CNC(=O)N2CC(c3nc(C)no3)C3(CCOCC3)C2)cc1 (centres undefined) | 731 |
| COc1cc2c(Oc3ccc4[nH]c(C)cc4c3F)ncnc2cc1OCCCN1CCCC1 | 709 |
| Clc1ccc(-c2cc3c(N4CCN(C5CCCCC5)CC4)nccn3n2)cc1 | 806 |
| CC1CCN(S(=O)(=O)c2ccc(-c3nnc(C(=O)NCc4ccccc4)o3)cc2)CC1 | 1040 |
| Cc1ccc(Nc2c(-c3ccc(Cl)cc3)nc3ncccn23)cc1Cl | 1020 |
| CCc1cc(=O)n(CC(=O)Nc2cc(Cl)ccc2OC)c(N2CCOCC2)n1 | 935 |
| Cc1ccc2nc(C(=O)N3CCN(c4ccccn4)CC3)cn2c1 | 538 |
| O=C(Nc1nc(-c2nc3ccccc3s2)cs1)c1ccno1 | 810 |
| O=C(Cn1ccc2ccc(N3CCOCC3)nc21)NCc1cccc(Cl)c1 | 909 |
| Cc1cc2c(=O)n(CC(=O)Nc3ccc4c(c3)OCCO4)c3cccnc3n2n1 | 693 |
| Cc1noc(C)c1CCC(=O)N1CCc2nn(CC#N)c(=O)n2CC1 | 630 |
| COc1cccc2c(Nc3ccccc3C)cc(C(=O)N3CCSCC3)nc12 | 689 |
| COCCNC(=O)N1CCCN(C2=NS(=O)(=O)C(c3ccc(C)cc3)=C2C)CC1 | 688 |
| COC(=O)CNC(=O)N1CCCC1c1cccc(F)c1 (centres undefined) | 701 |
| COc1ccc(CNC(=O)N2CCN(Cc3nc4cc(-c5ccccc5)ccc4o3)CC2)cc1 | 812 |
| Cc1ccc(C)c(CN2CCn3c(nn(C)c3=O)C2)c1 | 747 |
| Cc1cccc(S(=O)(=O)N2CCc3nc(-c4ccccc4)ncc3C2)c1C | 1160 |
| CNS(=O)(=O)c1cc(-c2nnc(-c3ccccc3)o2)ccc1OC | 786 |

| Compound | RP-LC retention time [s] |
| --- | --- |
| Cc1ccccc1Cn1cc(C(=O)Nc2cccc(Br)c2)ccc1=O | 877 |
| c1ccc(N2CCN(Cc3cccn3-c3nnc(N4CCOCC4)s3)CC2)nc1 | 756 |
| CCOCCCNC(=O)N1CCC(c2noc(-c3cnccn3)n2)C1 (centres undefined) | 614 |
| COc1cccc(C(=O)Nc2cccc(-c3nc4ncccc4o3)c2)c1 | 781 |
| CCc1nnc2ccc(-c3noc(-c4ccc(F)cc4F)n3)cn12 | 879 |
| CCOC(=O)c1noc2ncnc(N3CCN(c4ccc(F)cc4)CC3)c12 | 1010 |
| Cc1ccc(C)c(NC(=O)C2CCN(S(=O)(=O)c3ccc4c(c3)sc(=O)n4C(C)C)CC2)c1 | 1070 |
| O=C(NCc1ccc(N2CCOCC2)cc1)c1cn2c(n1)CCCC2 | 586 |
| O=C(c1ccc2c(c1)OCO2)N1CCc2cc(-c3csc(C4CC4)n3)ccc21 | 1090 |
| NC(=O)CCC(C(=O)O)N1C(=O)C2C3CCC(C3)C2C1=O (centres undefined) | 638 |
| Cc1cc(C(=O)Nc2nnc(-c3cccs3)o2)c(C)o1 | 706 |
| COc1ccc(-c2noc(C(C)NC(C)=O)n2)cc1 (centres undefined) | 680 |
| COc1ccc(-c2nc3cnccn3c2Nc2ccc(Br)cc2)cc1OC | 884 |
| COc1ccc(NC(=O)Cn2ccc3ccc(-c4nnc(C)o4)cc32)cc1 | 937 |
| CCC1=CC2CN3CCc4c([nH]c5ccccc45)[C@@](C(=O)OC)(C2)C13 | 681 |
| CC(C)CN(C[C@@H](O)[C@H](Cc1ccccc1)NC(=O)O[C@H]1CO[C@H]2OCC[C@H]21)S(=O)(=O)c1ccc(N)cc1 | 830 |
| COc1ccccc1NC(=O)CSc1ccc(N2CCCC(C(=O)NC3CC3)C2)nn1 (centres undefined) | 618 |
| COc1cc(NC(=O)c2nnn(-c3cc(OC)cc(OC)c3)c2C)cc(OC)c1 | 1050 |
| CCCOc1nc2ccccc2nc1N1CCCC(C(=O)Nc2cc(Cl)ccc2OC)C1 (centres undefined) | 611 |
| CCOC(=O)C1CCN(C(=O)C2CCN(c3nnc(-c4ccccc4)o3)CC2)CC1 | 801 |
| CC(=O)N(Cc1nn(C)c2c1CN(Cc1sccc1C)CC2)c1ccccc1 | 611 |
| Cc1ccccc1CN1N=C(C(=O)N2CCCCC2)S(=O)(=O)c2ccccc21 | 1010 |
| COc1cc(CN2CC(N(Cc3ccncc3)S(C)(=O)=O)C2)cc(OC)c1 | 568 |

| Compound | RP-LC retention time [s] |
| --- | --- |
| O=C(C1CCCO1)N1CCN(c2nc3cccnc3n(Cc3ccccc3)c2=O)CC1 (centres undefined) | 856 |
| Cn1ccc2c(cc(C(=O)NCCC3=CCCCC3)n2C)c1=O | 766 |
| CCc1ccc2[nH]c3c(c(=O)c2c1)CN(CC(=O)NCc1ccc(Cl)cc1)CC3 | 656 |
| Cc1ccc(CSc2nccc3c2ccn3CC(=O)NCCN2CCN(C)CC2)cc1 | 589 |
| COc1cc(C2C(C(=O)N3CCOCC3)=C(C)NC3=C2C(=O)CCC3)cc(Br)c1O (centres undefined) | 607 |
| O=S(=O)(c1cccc(-c2nnc(-c3ccccc3Br)o2)c1)N1CCCCC1 | 1160 |
| COc1ccc(NC(=O)NC2CCN(c3cc(N4CCCC4)cnn3)C2)cc1F (centres undefined) | 625 |
| COc1ccccc1OCc1nc(-c2ccc3ncn(C)c3c2)no1 | 693 |
| Clc1cccc(-c2nc(-c3ccc4nncn4c3)no2)c1 | 921 |
| CCOc1cc(CNC(=O)C2CCCN(C(=O)c3cc(C)cc(C)c3)C2)cc(OCC)c1OCC (centres undefined) | 968 |
| Cc1cc(C)c(S(=O)(=O)N(CCN2CCCCC2C)CC(=O)N2CCNCC2)cc1C (centres undefined) | 601 |
| CCc1ccccc1N(C)C(=O)Cc1c(C(=O)O)c(C)cn1C | 815 |
| Cc1ccc(S(=O)(=O)c2cnc(N3CCN(c4ccccn4)CC3)nc2N)cc1C | 677 |
| CCN(C(=O)CCCC(=O)OC)c1nc(-c2ccc(C)cc2)cs1 | 1180 |
| Cc1ccc(CNC(=O)CN2CCN(C(=O)Nc3ccc(Cl)cc3)CC2=O)o1 | 725 |
| CN(C)CCCNC(=O)C1CCN(c2nc3ccc(-c4cccs4)nc3s2)CC1 | 647 |
| COc1ccc(C)cc1NC(=O)C1CC(=O)N(c2n[nH]c3ccccc23)C1 (centres undefined) | 755 |
| Cc1ccc(-c2nocc2CCC(=O)NCc2ccccc2)cc1 | 910 |
| CCn1nccc1C(=O)NC1CCN(C2=NS(=O)(=O)C(c3ccc(C)cc3)=C2C)CC1 | 817 |
| Cc1noc(C)c1S(=O)(=O)N1CCC2(CC1)CN(c1ccccc1)C2=O | 924 |
